Measured values taken from ChEMBL document CHEMBL5131445, “Optimization of a novel piperazinone series as potent selective peripheral covalent BTK inhibitors” (Bioorg Med Chem Lett, 2022).
pIC50, pKd: −log10 of the molar value. In brackets after ≈: the same amount, converted by molar mass.

Assays:
[1] = target: T1, Tyrosine-protein kinase BTK (Homo sapiens, UniProt Q06187); experiment: Inhibition of BTK (unknown origin)
[2] = Inhibition of CD69 expression on CD19 positive B cells in anti-IgD stimulated human whole blood; type: functional, tissue-based; details: CD19 positive B cell
[3] = Metabolic stability in human liver microsomes assessed as intrinsic clearance; type: ADME, Microsome; details: read-out: CLH
[4] = Metabolic stability in rat liver microsomes assessed as intrinsic clearance; type: ADME, Microsome; details: read-out: CLH
[5] = target: T1, Tyrosine-protein kinase BTK; experiment: Inhibition of pBTK in human whole blood; type: tissue-based
[6] = target: Tyrosine-protein kinase Blk (Homo sapiens, UniProt P51451); experiment: Binding affinity to BLK (unknown origin) assessed as dissociation constant by KINOMEscan analysis
[7] = target: T2, Tyrosine-protein kinase TXK (Homo sapiens, UniProt P42681); experiment: Binding affinity to TXK (unknown origin) assessed as dissociation constant by KINOMEscan analysis
T2 sequence (P42681 whole entry): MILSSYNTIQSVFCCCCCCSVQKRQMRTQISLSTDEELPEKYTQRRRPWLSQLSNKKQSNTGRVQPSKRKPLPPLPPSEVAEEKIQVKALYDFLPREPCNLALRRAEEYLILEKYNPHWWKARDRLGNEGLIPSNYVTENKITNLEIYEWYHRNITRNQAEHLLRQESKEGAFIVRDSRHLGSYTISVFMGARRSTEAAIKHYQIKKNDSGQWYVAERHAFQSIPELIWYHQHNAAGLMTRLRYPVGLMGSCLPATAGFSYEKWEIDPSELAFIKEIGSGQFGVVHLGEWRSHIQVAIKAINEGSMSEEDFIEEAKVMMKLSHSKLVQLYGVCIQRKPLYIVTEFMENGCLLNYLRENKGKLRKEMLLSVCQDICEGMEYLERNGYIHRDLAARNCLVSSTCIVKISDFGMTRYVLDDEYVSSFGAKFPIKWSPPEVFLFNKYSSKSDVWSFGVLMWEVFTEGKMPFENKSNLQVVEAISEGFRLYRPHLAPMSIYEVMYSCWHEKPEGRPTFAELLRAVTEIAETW

[8] = Clearance in iv dosed Sprague-Dawley rat; type: ADME, organism-based; details: in vivo
[9] = Plasma protein binding in human assessed as unbound fraction by rapid equilibrium dialysis method; type: ADME, cell-free
[10] = target: Receptor tyrosine-protein kinase erbB-2 (Homo sapiens, UniProt P04626); experiment: Binding affinity to ERBB2 (unknown origin) assessed as dissociation constant by KINOMEscan analysis
[11] = target: T3, Tyrosine-protein kinase Tec (Homo sapiens, UniProt P42680); experiment: Binding affinity to TEC (unknown origin) assessed as dissociation constant by KINOMEscan analysis
T3 sequence (P42680 whole entry): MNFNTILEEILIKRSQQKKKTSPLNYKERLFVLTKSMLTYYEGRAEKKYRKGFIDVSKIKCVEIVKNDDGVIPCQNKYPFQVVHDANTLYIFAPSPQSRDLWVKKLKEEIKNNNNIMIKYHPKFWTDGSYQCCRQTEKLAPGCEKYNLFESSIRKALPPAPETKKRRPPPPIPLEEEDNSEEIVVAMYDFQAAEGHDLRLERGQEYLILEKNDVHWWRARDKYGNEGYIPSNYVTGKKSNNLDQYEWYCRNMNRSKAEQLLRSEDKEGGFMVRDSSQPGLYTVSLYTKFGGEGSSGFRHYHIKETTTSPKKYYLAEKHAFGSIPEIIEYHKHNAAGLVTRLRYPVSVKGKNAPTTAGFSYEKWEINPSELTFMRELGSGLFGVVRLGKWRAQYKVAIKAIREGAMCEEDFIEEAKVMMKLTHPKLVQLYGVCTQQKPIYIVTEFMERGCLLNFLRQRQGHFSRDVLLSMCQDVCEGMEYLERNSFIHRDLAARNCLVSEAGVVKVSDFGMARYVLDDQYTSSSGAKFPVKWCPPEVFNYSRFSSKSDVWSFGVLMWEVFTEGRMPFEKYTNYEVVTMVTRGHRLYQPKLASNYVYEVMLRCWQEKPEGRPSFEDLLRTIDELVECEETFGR

[12] = Solubility of the compound at pH 7; type: physicochemical; details: buffer
[13] = Plasma protein binding in rat assessed as unbound fraction by rapid equilibrium dialysis method; type: ADME, cell-free

T1 sequence (Q06187 whole entry): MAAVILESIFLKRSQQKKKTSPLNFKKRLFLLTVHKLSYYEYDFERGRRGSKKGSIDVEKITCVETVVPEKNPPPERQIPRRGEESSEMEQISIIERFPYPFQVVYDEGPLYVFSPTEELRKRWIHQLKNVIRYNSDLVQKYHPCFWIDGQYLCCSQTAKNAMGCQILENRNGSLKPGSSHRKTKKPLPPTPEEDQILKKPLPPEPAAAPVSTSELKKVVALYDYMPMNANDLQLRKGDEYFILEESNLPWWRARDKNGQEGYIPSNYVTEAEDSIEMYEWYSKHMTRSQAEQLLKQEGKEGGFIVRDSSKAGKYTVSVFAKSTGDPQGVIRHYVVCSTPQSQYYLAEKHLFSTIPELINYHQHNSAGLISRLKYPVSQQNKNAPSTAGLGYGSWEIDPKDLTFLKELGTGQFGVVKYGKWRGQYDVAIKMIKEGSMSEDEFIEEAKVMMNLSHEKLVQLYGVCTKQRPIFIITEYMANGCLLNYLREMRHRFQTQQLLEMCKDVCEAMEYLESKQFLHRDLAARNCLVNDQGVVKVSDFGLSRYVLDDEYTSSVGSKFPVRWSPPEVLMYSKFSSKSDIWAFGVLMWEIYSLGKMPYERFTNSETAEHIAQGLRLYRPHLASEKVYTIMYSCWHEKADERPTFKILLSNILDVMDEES
Tyrosine-protein kinase Blk, sequence (P51451 whole entry): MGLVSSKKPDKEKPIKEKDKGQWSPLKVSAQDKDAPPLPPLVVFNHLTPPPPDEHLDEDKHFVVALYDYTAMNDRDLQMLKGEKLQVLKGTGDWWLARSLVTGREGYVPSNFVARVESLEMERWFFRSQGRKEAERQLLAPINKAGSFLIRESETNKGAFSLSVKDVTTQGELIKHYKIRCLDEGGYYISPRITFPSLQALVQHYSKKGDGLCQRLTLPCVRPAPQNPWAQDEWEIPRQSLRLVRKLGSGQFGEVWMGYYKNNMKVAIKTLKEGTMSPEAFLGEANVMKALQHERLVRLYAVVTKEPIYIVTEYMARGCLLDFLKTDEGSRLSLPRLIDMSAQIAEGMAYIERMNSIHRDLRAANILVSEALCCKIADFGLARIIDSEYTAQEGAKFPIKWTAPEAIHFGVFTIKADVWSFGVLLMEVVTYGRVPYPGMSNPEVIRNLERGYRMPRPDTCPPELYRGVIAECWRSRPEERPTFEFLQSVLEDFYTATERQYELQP
Receptor tyrosine-protein kinase erbB-2, sequence (P04626 whole entry): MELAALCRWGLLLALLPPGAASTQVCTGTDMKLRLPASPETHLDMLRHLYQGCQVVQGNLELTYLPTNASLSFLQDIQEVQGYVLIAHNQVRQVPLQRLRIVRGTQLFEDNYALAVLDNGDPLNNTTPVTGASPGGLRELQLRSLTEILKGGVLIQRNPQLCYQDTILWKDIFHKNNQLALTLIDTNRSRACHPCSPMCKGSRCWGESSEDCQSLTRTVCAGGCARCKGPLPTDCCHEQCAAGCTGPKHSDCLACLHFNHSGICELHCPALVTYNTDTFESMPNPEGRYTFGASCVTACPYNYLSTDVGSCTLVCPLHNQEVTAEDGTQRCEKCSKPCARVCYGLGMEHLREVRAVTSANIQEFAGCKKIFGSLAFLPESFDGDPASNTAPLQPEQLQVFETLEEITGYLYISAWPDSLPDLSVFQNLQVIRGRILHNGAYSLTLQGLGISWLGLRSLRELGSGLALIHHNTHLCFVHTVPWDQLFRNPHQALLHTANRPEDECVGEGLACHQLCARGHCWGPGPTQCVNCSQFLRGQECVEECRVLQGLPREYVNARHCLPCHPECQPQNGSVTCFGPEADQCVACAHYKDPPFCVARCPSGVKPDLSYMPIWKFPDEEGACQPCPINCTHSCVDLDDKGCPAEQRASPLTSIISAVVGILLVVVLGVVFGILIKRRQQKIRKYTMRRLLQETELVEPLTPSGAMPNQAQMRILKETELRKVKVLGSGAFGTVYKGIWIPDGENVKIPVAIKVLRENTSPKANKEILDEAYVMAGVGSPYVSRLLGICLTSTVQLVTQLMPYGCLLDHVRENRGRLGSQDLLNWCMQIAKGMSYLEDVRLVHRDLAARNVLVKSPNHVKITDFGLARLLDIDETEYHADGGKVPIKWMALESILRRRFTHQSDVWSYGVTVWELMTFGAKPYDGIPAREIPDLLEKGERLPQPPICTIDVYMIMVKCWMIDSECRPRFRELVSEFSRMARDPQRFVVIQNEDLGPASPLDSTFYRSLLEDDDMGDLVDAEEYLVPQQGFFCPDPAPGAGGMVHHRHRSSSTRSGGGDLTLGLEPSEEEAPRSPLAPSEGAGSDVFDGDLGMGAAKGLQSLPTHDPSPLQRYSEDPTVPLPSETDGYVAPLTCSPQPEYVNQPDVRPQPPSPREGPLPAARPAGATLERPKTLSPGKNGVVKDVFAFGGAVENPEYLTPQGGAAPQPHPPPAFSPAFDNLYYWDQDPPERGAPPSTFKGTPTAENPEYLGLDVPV

## C=CC(=O)N(C)CCOc1cncnc1-c1ccc(CN2CCN(CC(F)(F)F)CC2=O)c(C)c1
[1]
  pIC50: 7.92
[2]
  pIC50: 5.70
[3]
  CLint scaled: 316 mL/min/kg
[4]
  CLint scaled: 1110 mL/min/kg

## C=CC(=O)N(C)CCOc1cncnc1-c1ccc(CN2CCN(CC(C)(C)C)CC2=O)c(F)c1
[1]
  pIC50: 9.36
[2]
  pIC50: 6.52
[3]
  CLint scaled: 809 mL/min/kg
[4]
  CLint scaled: 3680 mL/min/kg

## C=CC(=O)N(C)CCOc1cnccc1-c1ccc(CN2CCN(CC3CCC3)CC2=O)c(C)c1
[1]
  pIC50: 8.92
[2]
  pIC50: 5.97
[3]
  CLint scaled: 686 mL/min/kg
[4]
  CLint scaled: 2260 mL/min/kg

## C=CC(=O)N(C)CCOc1cnccc1-c1ccc(CN2CCN(C)CC2=O)c(C)c1
[1]
  pIC50: 6.50
[2]
  pIC50: < 5.00
[3]
  CLint scaled: 95 mL/min/kg
[4]
  CLint scaled: 620 mL/min/kg

## C=CC(=O)N(C)CCOc1cncnc1-c1ccc(CN2CCN(C3CCOC3)CC2=O)c(F)c1 (stereo not drawn)
[1]
  pIC50: 6.57
[2]
  pIC50: < 5.00
[3]
  CLint scaled: 81 mL/min/kg
[4]
  CLint scaled: 308 mL/min/kg

## Cc1cc(-c2ccnc(Nc3cnn(C)c3)n2)ccc1CN1CCN(CC2CCOC2)CC1=O (stereo not drawn)
[1]
  pIC50: 6.74

## CC(C)(C)CN1CCN(Cc2ccc(-c3ccnc(Nc4cnn(CCO)c4)n3)cc2C(F)(F)F)C(=O)C1
[1]
  pIC50: 9.40
[5]
  pIC50: 6.32

## Cc1cc(-c2ccnc(Nc3cnn(C)c3)n2)ccc1CN1CCN(C2CCC2)CC1=O
[1]
  pIC50: 7.96

## Cc1cc(-c2ccnc(Nc3cnn(C)c3)n2)ccc1CN1CCN(CC(F)(F)F)CC1=O
[1]
  pIC50: 6.80

## CC#CC(=O)N1CCC[C@H]1c1nc(-c2ccc(C(=O)Nc3ccccn3)cc2)c2c(N)nccn12 [ACALABRUTINIB]
[6]
  pKd: 7.74
[7]
  pKd: 7.62

## Cc1cc(-c2ccnc(Nc3cnn(C)c3)n2)ccc1CN1CCN(CC(C)C)CC1=O
[1]
  pIC50: 8.52
[5]
  pIC50: 6.51

## C=CC(=O)N(C)CCOc1cnccc1-c1ccc(CN2CCN(C(C)C)CC2=O)c(C)c1
[1]
  pIC50: 8.54
[2]
  pIC50: 6.04
[3]
  CLint scaled: 135 mL/min/kg
[4]
  CLint scaled: 1240 mL/min/kg

## Cc1cc(-c2ccnc(Nc3cnn(C)c3)n2)ccc1CN1CCN(CC2(C)CC2)CC1=O
[1]
  pIC50: 8.15

## C=CC(=O)N(C)CCOc1c(N)ncnc1-c1cc(F)cc(NC(=O)c2ccc(C3CC3)cc2F)c1C [REMIBRUTINIB]
[8]
  clearance: 214 mL/min/kg
[2]
  pIC50: 7.44
[3]
  CLint scaled: 80 mL/min/kg
[4]
  CLint scaled: 97 mL/min/kg
[6]
  pKd: 4.52
[7]
  pKd: 4.77

## C=CC(=O)N(C)CCOc1cnccc1-c1ccc(CN2CCN(CC(C)C)CC2=O)c(C)c1
[1]
  pIC50: 9.19
[2]
  pIC50: 6.80
[3]
  CLint scaled: 633 mL/min/kg
[4]
  CLint scaled: 2340 mL/min/kg

## Cc1cc(-c2ccnc(Nc3cnn(C)c3)n2)ccc1CN1CCN(CC2CNC2)CC1=O
[1]
  pIC50: 5.38

## CC(=O)N(C)CCOc1cncnc1-c1ccc(CN2CCN(CC(C)(C)C)CC2=O)c(C)c1
[1]
  pIC50: 5.77
[2]
  pIC50: < 5.00
[3]
  CLint scaled: 530 mL/min/kg
[4]
  CLint scaled: 1500 mL/min/kg
[9]
  fraction unbound: 0.31

## CC(C)CN1CCN(Cc2ccc(-c3ccnc(Nc4cnn(CCO)c4)n3)cc2Cl)C(=O)C1
[1]
  pIC50: 8.40
[5]
  pIC50: 6.00

## C=CC(=O)N1CCC([C@@H]2CCNc3c(C(N)=O)c(-c4ccc(Oc5ccccc5)cc4)nn32)CC1 [ZANUBRUTINIB]
[10]
  pKd: 7.12
[11]
  pKd: 7.74
[7]
  pKd: 6.01

## CC(C)CN1CCN(Cc2ccc(-c3ccnc(Nc4cnn(CCO)c4)n3)cc2C(F)(F)F)C(=O)C1
[1]
  pIC50: 9.00
[5]
  pIC50: 6.92

## CCN1CCN(Cc2ccc(-c3ccnc(Nc4cnn(C)c4)n3)cc2C)C(=O)C1
[1]
  pIC50: 6.28

## C=CC(=O)N(C)CCOc1cnccc1-c1ccc(CN2CCN(CCC)CC2=O)c(C)c1
[1]
  pIC50: 8.32
[2]
  pIC50: 6.05
[3]
  CLint scaled: 286 mL/min/kg
[4]
  CLint scaled: 1540 mL/min/kg

## C=CC(=O)N(C)CCOc1cncnc1-c1ccc(CN2CCN(CC(C)(C)C)CC2=O)c(C)c1
[1]
  pIC50: 8.87
[2]
  pIC50: 6.20
[3]
  CLint scaled: 1370 mL/min/kg
[4]
  CLint scaled: 2500 mL/min/kg
[9]
  fraction unbound: 0.14
[12]
  solubility: 13 µg/mL (≈ 27.1 µM)

## C=CC(=O)N(C)CCOc1cncnc1-c1ccc(CN2CCN(CC3(C)CC3)CC2=O)c(C)c1
[1]
  pIC50: 9.01
[2]
  pIC50: 6.89
[3]
  CLint scaled: 559 mL/min/kg
[4]
  CLint scaled: 2680 mL/min/kg

## Cc1cc(-c2ccnc(Nc3cnn(CCO)c3)n2)ccc1CN1CCN(CC(C)(C)C)CC1=O
[1]
  pIC50: 9.00
[5]
  pIC50: 6.09

## Cc1cc(-c2ccnc(Nc3cnn(C)c3)n2)ccc1CN1CCN(CC(C)(C)C#N)CC1=O
[1]
  pIC50: 7.00

## C=CC(=O)N(C)CCOc1cncnc1-c1ccc(CN2CCN(CC(C)(C)C)CC2=O)cc1
[1]
  pIC50: 7.77
[2]
  pIC50: 5.33
[3]
  CLint scaled: 270 mL/min/kg
[4]
  CLint scaled: 930 mL/min/kg

## Cc1cc(-c2ccnc(Nc3cnn(C4CN(C)C4)c3)n2)ccc1CN1CCN(CC(C)(C)C)CC1=O
[1]
  pIC50: 8.15
[5]
  pIC50: 5.58

## Cc1cc(-c2ccnc(Nc3cnn(C)c3)n2)ccc1CN1CCN(CC2CN(O)C2)CC1=O
[1]
  pIC50: 7.10

## Cc1cc(-c2ccnc(Nc3cnn(C)c3)n2)ccc1CN1CCN(C(C)(C)C)CC1=O
[1]
  pIC50: 7.37

## C=CC(=O)N(C)CCOc1cncnc1-c1ccc(CN2CCN(CC(C)C)CC2=O)c(C)c1
[1]
  pIC50: 9.08
[2]
  pIC50: 6.89
[3]
  CLint scaled: 444 mL/min/kg
[4]
  CLint scaled: 2000 mL/min/kg
[9]
  fraction unbound: 0.24
[13]
  fraction unbound: 0.07

## C=CC(=O)N(C)CCOc1cnccc1-c1ccc(CN2CCN(CC(C)(C)C)CC2=O)c(C)c1
[1]
  pIC50: 9.36
[2]
  pIC50: 6.52
[3]
  CLint scaled: 809 mL/min/kg
[4]
  CLint scaled: 3680 mL/min/kg
[9]
  fraction unbound: 0.11
[12]
  solubility: 55 µg/mL (≈ 115 µM)

## Cc1cc(-c2ccnc(Nc3cnn(C)c3)n2)ccc1CN1CCN(CC2CC(F)(F)C2)CC1=O
[1]
  pIC50: 7.55

## C=CC(=O)N(C)CCOc1cnccc1-c1ccc(CN2CCN(CC)CC2=O)c(C)c1
[1]
  pIC50: 7.49
[2]
  pIC50: 5.36
[3]
  CLint scaled: 113 mL/min/kg
[4]
  CLint scaled: 591 mL/min/kg

## C=CC(=O)N(C)CCOc1cncnc1-c1ccc(CN2CCN(CC3CCC3)CC2=O)c(C)c1
[1]
  pIC50: 8.80
[2]
  pIC50: 5.97
[3]
  CLint scaled: 384 mL/min/kg
[4]
  CLint scaled: 1880 mL/min/kg

## Cc1cc(-c2ccnc(Nc3cnn(CCO)c3)n2)ccc1CN1CCN(CC(C)C)CC1=O
[1]
  pIC50: 8.52
[5]
  pIC50: 6.23

## Cc1cc(-c2ccnc(Nc3cnn(C4CN(C)C4)c3)n2)ccc1CN1CCN(CC(C)C)CC1=O
[1]
  pIC50: 8.15
[5]
  pIC50: 6.46

## Cc1cc(-c2ccnc(Nc3cnn(C)c3)n2)ccc1CN1CCN(CC2CN(C)C2)CC1=O
[1]
  pIC50: 5.14

## Cc1cc(-c2ccnc(Nc3cnn(C)c3)n2)ccc1CN1CCN(CC2CCC2)CC1=O
[1]
  pIC50: 8.52
[5]
  pIC50: 6.03

## Cc1cc(-c2ccnc(Nc3cnn(C)c3)n2)ccc1CN1CCN(CC(C)(C)C)CC1=O
[1]
  pIC50: 9.00
[5]
  pIC50: 5.98
[2]
  pIC50: < 5.00
[3]
  CLint scaled: 228 mL/min/kg
[4]
  CLint scaled: 493 mL/min/kg
[9]
  fraction unbound: 0.014
[12]
  solubility: 11 µg/mL (≈ 24.6 µM)

## C=CC(=O)N(C)CCOc1c(-c2ccc(CN3CCN(CC(C)C)CC3=O)c(C)c2)ccnc1N
[1]
  pIC50: 9.16
[2]
  pIC50: 6.44
[3]
  CLint scaled: 334 mL/min/kg
[4]
  CLint scaled: 793 mL/min/kg
[9]
  fraction unbound: 0.29
